Data on 3 compounds can be found in article PMC8704606, “The Artemiside-Artemisox-Artemisone-M1 Tetrad: Efficacies against Blood Stage P. falciparum Parasites, DMPK Properties, and the Case for Artemiside” (Pharmaceutics, 2021).

In general, EC50 refers to the concentration needed to bring the measured effect to its halfway point. Broadly, the IC50 is the concentration that gives 50% inhibition. As a reminder, the IC90 is the point of the concentration-response curve where the effect stands at 90%.

The test system of one data set is HepG2. The following applies: ref S3, cited from earlier work; for EC50: read-out: Cytotoxicity EC50 HepG2.
For data set [1] the following is noted: cited from earlier work.
Data set [2] relates to early-stage (EG) Pf NF54 gametocytes. More on the design: method as in PMID 29866868. The following applies: early-stage gametocytes >95% stages II-III; 48 h incubation; ± SEM; cited from earlier work.
Data set [3] deals with Chinese hamster ovary (CHO) cells. Set-up: method as in PMID 29866868, PMID 31998692. The following applies: other cell lines including CHO cells; read-out: EC50 cytotoxicity; cited from earlier work.
Data set [4] has as its system P. falciparum asexual blood stage artemisinin-resistant clone PL08-009 (5C) carrying the PfKI3 C580Y mutation. More on the design: method as in ref S3. The following applies: ref S3, cited from earlier work; for IC50 / IC90: 36 h life cycle, PfKI3 C580Y.
The test system of another data set is P. falciparum W2. Set-up: method as in ref S3. The following applies: [3H]-hypoxanthine assay; ref S3; cited from earlier work.
The test system of data set [5] is asexual blood stages of Pf NF54 (drug sensitive). Set-up: method as in PMID 29866868, PMID 31998692. The following applies: asexual blood stage Pf NF54, CQ sensitive; SYBR Green I; ± SEM; cited from earlier work.
Data set [6] has as its system type II tachyzoites (PRU-Luc-GFP). The following applies: sc 10 mg/kg/d for 8 days; cited from earlier work.
Data set [7] relates to asexual blood stages of Pf K1 (drug resistant). Set-up: method as in PMID 29866868, PMID 31998692. The following applies: cited from earlier work; for IC50: asexual blood stage Pf K1, multidrug resistant, SYBR Green I, ± SEM.
The test system of another data set is P. berghei sporozoites. The following applies: cited from earlier work; for Maximum inhibition % P. berghei sporozoites: ref S3; for IC50: luciferase-expressing P. berghei ANKA GFP-Luc-SMcon sporozoites in HepG2 cells, 48 h, ± SD, ref S3 (7).
For data set [8], the system named is late-stage (LG) Pf NF54 gametocytes. Set-up: method as in PMID 29866868. The following applies: late-stage gametocytes >90% stages IV-V; dose responses obtained at 72 h; ± SEM; cited from earlier work.
Data set [9] deals with asexual blood stages of Pf W2 (drug resistant). More on the design: method as in PMID 29866868, PMID 31998692. The following applies: cited from earlier work; for IC50: asexual blood stage Pf W2, multidrug resistant, SYBR Green I, ± SEM.
Another data set concerns Toxoplasma gondii (Tg). Set-up: method as in PMID 19635951. The following applies: IFN-γ−/− female mice, 10 mg/kg/d for 8 days after cessation of sulfadiazine; cited from earlier work.
In data set [10] the test system is P. falciparum asexual blood stage artemisinin-resistant clone ARC08-22 (4G) carrying the PfKI3 C580Y mutation. More on the design: method as in ref S3. The following applies: ref S3, cited from earlier work; for IC50 / IC90: 48 h life cycle, PfKI3 C580Y.
The test system of a further data set is P. berghei ANKA strain. The following applies: cited from earlier work; for outcome of combination with piperaquine: P. berghei ANKA infected mice, ip 0.66 mg/kg with piperaquine 10 mg/kg.
The subject of data set [11] is late-stage (LG) Pf NF54 gametocytes. Nature of the data set: Luciferase assay, late-stage gametocytes. The following applies: for IC50: late-stage gametocytes >90% stages IV-V, dose response obtained at 72 h, ± SEM. The class given is cell-based, Plasmodium falciparum. As for the experimental part: For screening artemisox and M1 against early- (EG) and late-stage (LG) gametocytes, the luciferase assay with transgenic NF54-pfs16-GFP-Luc and NF54-Mal8p1.16-GFP-Luc parasite lines was used. With this assay, stage-specificity of gametocytocidal action was established (Table 2). Dose-response curves are in Figures S1d,e and S2d in the Supplementary Material 1. […] As was observed previously for artemisone and artemiside, dose responses for artemisox and M1 could not be obtained at 48 h against late-stage gametocytes.
The same reference compounds with the exception of CQ were used for the early- and late-stage gametocyte assays. Gametocytocidal activity was determined using the transgenic NF54-pfs16-GFP-Luc and NF54-Mal8p1.16-GFP-Luc reporter lines. Compounds were initially screened for activity at a fixed drug concentration of 1 µM, with dose responses subsequently determined using 2-fold serial drug dilutions for 48 h against early-stage gametocytes (day 5 post-induction population, ≥95% stages II–III) and 10-fold serial drug dilutions for 48 h or 72 h against late-stage gametocytes (day 10 post-induction population, ≥90% late-stage [stages IV–V]) (2 to 3% gametocytemia, 2% hematocrit) at 37 °C under 90% N2, 5% CO2, and 5% O2 [6]. No drug washout steps were performed during the drug incubation periods prior to the assays. In all cases, an interference assay was run in parallel to eliminate the possibility of false positives arising through compound interference with the luciferase readout.

Setting [12] is: 10 mg/kg/d for 14 days by gavage in sesame oil.
Setting [13] is: 50 mg/kg/d for 14 days by gavage in sesame oil.

Read-outs that look alike come from different tables or passages of the source.

On to `C[C@H]1[C@H](N2CCSCC2)O[C@@H]2O[C@@]3(C)CC[C@H]4[C@H](C)CC[C@@H]1[C@@]24OO3` [Artemiside 5, Artemiside], for which the EC50 with HepG2 was greater than 25 µM; in data set [3], greater than 241 µM. Also, the “SI = EC50 HepG2/IC50 P. berghei sporozoites” value in the data set on HepG2 is recorded as greater than 308. Also, the “neurotoxicity in vivo, effects observed” value in [1] (setting [12]) is “no effects were observed”; in data set [1] (setting [13]), “neurotoxic sequelae including body weight loss, reduced motility, uncoordinated gait, and piloerection”. In addition, the IC50 is 16.4 ± 1 nM in data set [2]; 0.29 nM in [4]; 2.21 nM with P. falciparum W2; 1.11 ± 0.17 nM in [5]; 1.6 ± 0.4 nM in data set [7]; 81.3 nM with P. berghei sporozoites. Moreover, the figures for the IC50 in [8], in data set [9] and in data set [10] were 1.5 ± 0.5 nM, 1.75 ± 0.27 nM and 2.43 nM, respectively. In addition, the figures for the IC90 (in [4]; with P. falciparum W2; in [10]) were 0.43 nM, 4.28 nM and 4.85 nM, respectively. In [4], the “RI = IC50 for PL08-09 (5C)/IC50 for W2” value is listed as 0.1. For the same compound, the “mice surviving the infection, acute phase” value in [6] is reported as 60%. In [7], the “RI (resistance index) = IC50 K1/IC50 NF54” value is reported as 1.47. Also, in the data set with P. berghei sporozoites (at 5 µM), the “Maximum inhibition % P. berghei sporozoites” value is 99.05±1.34%. The “RI = IC50 W2/IC50 NF54” value in [9] was 1.58. For the same compound, the “mice with prolonged survival, reactivation stage” value in the data set with Toxoplasma gondii (Tg) is given as 80%. The “RI = IC50 for ARC08-22(4G)/IC50 for W2” value in [10] is reported as 1.1. In the data set with P. berghei ANKA strain, the “outcome of combination with piperaquine” value was “survival of all mice, with no recrudescence taking place”. The “outcome in cerebral malaria model” value with P. berghei ANKA strain (mice infected with P. berghei ANKA, artemiside 3 mg/kg/d ip for 4 days (days 2–5 post-infection)) is listed as “complete cure”.

Regarding `C[C@H]1[C@H](N2CCS(=O)(=O)CC2)O[C@@H]2O[C@@]3(C)CC[C@H]4[C@H](C)CC[C@@H]1[C@@]24OO3` [Artemisone 7, Artemisone], the EC50 in the data set with HepG2 is greater than 50 µM; in data set [3], greater than 241 µM. In the data set with HepG2, the “SI = EC50 HepG2/IC50 P. berghei sporozoites” value is greater than 1767. Moreover, the “fold decrease in activity against late-stage gametocytes” value in [11] (late-stage vs early-stage gametocytes, p < 0.05) is greater than 20 fold. Further, the entries for the “neurotoxicity in vivo, effects observed” value in [1] (setting [12]) and in [1] (setting [13]) were “no effects were observed” and “induced no effects”, respectively. Further, the IC50 in data set [2] is 1.94 ± 0.11 nM; in data set [4] it was 0.27 nM; with P. falciparum W2, 1.69 nM; in data set [5] it was 1.2 ± 0.4 nM; in data set [7] it was 1.01 ± 0.19 nM; with P. berghei sporozoites, 28.3 nM. In addition, the IC50 is 42.4 ± 3.3 nM in data set [8], 1.6 ± 0.4 nM in [9] and 1.62 nM in data set [10]. Also, the IC90 in [4] was 0.43 nM; with P. falciparum W2, 3.42 nM; in data set [10] it was 3.38 nM. In addition, the “RI = IC50 for PL08-09 (5C)/IC50 for W2” value in data set [4] is 0.2. Further, the “mice surviving the infection, acute phase” value in [6] was “over 50%”. The “RI (resistance index) = IC50 K1/IC50 NF54” value in data set [7] is 0.85. The “Maximum inhibition % P. berghei sporozoites” value in the data set on P. berghei sporozoites (at 10 µM) was 93.35±1.76%. In data set [9], the “RI = IC50 W2/IC50 NF54” value is on record as 1.36. Further, the “mice with prolonged survival, reactivation stage” value with Toxoplasma gondii (Tg) is recorded as 60%. Also, the “RI = IC50 for ARC08-22(4G)/IC50 for W2” value in data set [10] was 1.0. For the same compound, the “outcome of combination with piperaquine” value in the data set with P. berghei ANKA strain is given as “recrudescence with eventual mortality was observed”.

As to `C[C@H]1[C@H](N2CC[S+]([O-])CC2)O[C@@H]2O[C@@]3(C)CC[C@H]4[C@H](C)CC[C@@H]1[C@@]24OO3` [Artemisox 6, Artemisox], the IC50 in [11] (Plasmodium falciparum, NF54, 72 h) came to 2.7 nM; in data set [11], 2.72 ± 0.09 nM.
